Test results reported in patent publication US20050014766A1, “Use of n-(indolecarbonyl-)piperazine derivatives” (priority 2002, published 2005).

Assays:
[1] = Feeding experiment on Beagle hounds (body weight, feed consumption, behaviour and general state); type: in vivo
Description: The efficacy of the compounds of the formula I for the treatment of obesity can be determined in vivo as follows (cf. Example B): A certain dose or varying doses of the test compound is administered to one group of experimental animals over an extended period. The amount of feed consumed and the body weight of the experimental animals are recorded regularly. At the same time, the behaviour and general state of the animals are monitored in a manner known per se. Conclusions can be drawn on the suitability of the test compound for the treatment of obesity from the decrease in the body weight and the take-up of feed in the experimental period with an otherwise unchanged general state and in the absence of changes in behaviour. The test substance in the form of hard gelatine capsules produced as described in Example B7 is administered once daily over a period of 11 days to a group of Beagle hounds about 8 months old which had been dewormed in advance. The amount of feed consumed is determined daily by re-weighing the unconsumed feed, the body weight before (day 0), during (day 5) and after (day 12) the feeding experiment. At the same time, the behaviour and general state of the animals are monitored over the entire experimental period. Drinking water in unlimited amount is available to the dogs. […] The behaviour and general state of the dogs are not impaired in the experimental period by the administration of the test substance.

[2] = as above; type: in vivo; remark: listed apart in the source
[3] = Beagle hounds, once daily oral capsules over 11 days

## Cl.N#Cc1c[nH]c2c(C(=O)N3CCN(CCc4ccc(F)cc4)CC3)cccc12 [(3-cyano-1H-indol-7-yl)[4-(4-fluoro-phenethyl)piperazin-1-yl]methanone, hydrochloride]
[1]; Dog 8910 (male), day 0, before dosing
  body weight: 8.6 kg
[1]; Dog 8910 (male), day 2, dose 10 mg/kg
  feed consumption: 320 g
[1]; Dog 8910 (male), day 5, once daily capsules 3, 10, 30 mg/kg days 1-3, 100 mg/kg from day 4
  body weight: 8.6 kg
[1]; Dog 8910 (male), day 6, dose 100 mg/kg
  feed consumption: 240 g
[1]; Dog 8910 (male), day 10, dose 100 mg/kg
  feed consumption: 20 g
[1]; Dog 8910 (male), day 12, after 3, 10, 30 mg/kg days 1-3 and 100 mg/kg days 4-11
  body weight: 7.8 kg
[1]; Dog 8936 (female), day 6, dose 100 mg/kg
  feed consumption: 140 g
[2]; Beagle hounds, experimental period, doses up to 100 mg/kg
  behaviour and general state of the dogs: not impaired
[2]; [3]
  body weight change (in words): significant reduction in body weight
  consumption of feed during the experiment (in words): increasingly restrict the consumption of feed
[2]; Dog 1201 (male), day 0, before dosing
  body weight: 6.8 kg
[2]; Dog 1201 (male), day 1, no dose yet (dosing starts day 5)
  feed consumption: 440 g
[2]; Dog 1201 (male), day 2, no dose yet (dosing starts day 5)
  feed consumption: 260 g
[2]; Dog 1201 (male), day 3, no dose yet (dosing starts day 5)
  feed consumption: 400 g
[2]; Dog 1201 (male), day 4, no dose yet (dosing starts day 5)
  feed consumption: 230 g
[2]; Dog 1201 (male), day 5, dose 50 mg/kg
  feed consumption: 340 g
[2]; Dog 1201 (male), day 5, first day of 50 mg/kg
  body weight: 7.1 kg
[2]; Dog 1201 (male), day 6, dose 50 mg/kg
  feed consumption: 220 g
[2]; Dog 1201 (male), day 7, dose 50 mg/kg
  feed consumption: 160 g
[2]; Dog 1201 (male), day 8, dose 50 mg/kg
  feed consumption: 170 g
[2]; Dog 1201 (male), day 9, dose 50 mg/kg
  feed consumption: 130 g
[2]; Dog 1201 (male), day 10, dose 50 mg/kg
  feed consumption: 80 g
[2]; Dog 1201 (male), day 11, dose 50 mg/kg
  feed consumption: 40 g
[2]; Dog 1201 (male), day 12, after 50 mg/kg days 5-11
  body weight: 6.3 kg
[2]; Dog 2164 (female), day 0, before dosing
  body weight: 6.1 kg
[2]; Dog 2164 (female), day 1, no dose yet (dosing starts day 5)
  feed consumption: 310 g
[2]; Dog 2164 (female), day 2, no dose yet (dosing starts day 5)
  feed consumption: 270 g
[2]; Dog 2164 (female), day 3, no dose yet (dosing starts day 5)
  feed consumption: 280 g
[2]; Dog 2164 (female), day 4, no dose yet (dosing starts day 5)
  feed consumption: 280 g
[2]; Dog 2164 (female), day 5, dose 50 mg/kg
  feed consumption: 340 g
[2]; Dog 2164 (female), day 5, first day of 50 mg/kg
  body weight: 5.9 kg
[2]; Dog 2164 (female), day 6, dose 50 mg/kg
  feed consumption: 180 g
[2]; Dog 2164 (female), day 7, dose 50 mg/kg
  feed consumption: 260 g
[2]; Dog 2164 (female), day 8, dose 50 mg/kg
  feed consumption: 150 g
[2]; Dog 2164 (female), day 9, dose 50 mg/kg
  feed consumption: 140 g
[2]; Dog 2164 (female), day 10, dose 50 mg/kg
  feed consumption: 130 g
[2]; Dog 2164 (female), day 11, dose 50 mg/kg
  feed consumption: 60 g
[2]; Dog 2164 (female), day 12, after 50 mg/kg days 5-11
  body weight: 5.5 kg
[2]; Dog 8910 (male), day 1, dose 3 mg/kg
  feed consumption: 380 g
[2]; Dog 8910 (male), day 3, dose 30 mg/kg
  feed consumption: 370 g
[2]; Dog 8910 (male), day 4, dose 100 mg/kg
  feed consumption: 320 g
[2]; Dog 8910 (male), day 5, dose 100 mg/kg
  feed consumption: 250 g
[2]; Dog 8910 (male), day 7, dose 100 mg/kg
  feed consumption: 60 g
[2]; Dog 8910 (male), day 8, dose 100 mg/kg
  feed consumption: 60 g
[2]; Dog 8910 (male), day 9, dose 100 mg/kg
  feed consumption: 40 g
[2]; Dog 8910 (male), day 11, dose 100 mg/kg
  feed consumption: 90 g
[2]; Dog 8936 (female), day 0, before dosing
  body weight: 7.5 kg
[2]; Dog 8936 (female), day 1, dose 3 mg/kg
  feed consumption: 380 g
[2]; Dog 8936 (female), day 2, dose 10 mg/kg
  feed consumption: 380 g
[2]; Dog 8936 (female), day 3, dose 30 mg/kg
  feed consumption: 360 g
[2]; Dog 8936 (female), day 4, dose 100 mg/kg
  feed consumption: 220 g
[2]; Dog 8936 (female), day 5, dose 100 mg/kg
  feed consumption: 200 g
[2]; Dog 8936 (female), day 5, once daily capsules 3, 10, 30 mg/kg days 1-3, 100 mg/kg from day 4
  body weight: 7.3 kg
[2]; Dog 8936 (female), day 7, dose 100 mg/kg
  feed consumption: 80 g
[2]; Dog 8936 (female), day 8, dose 100 mg/kg
  feed consumption: 30 g
[2]; Dog 8936 (female), day 9, dose 100 mg/kg
  feed consumption: 30 g
[2]; Dog 8936 (female), day 10, dose 100 mg/kg
  feed consumption: 70 g
[2]; Dog 8936 (female), day 11, dose 100 mg/kg
  feed consumption: 10 g
[2]; Dog 8936 (female), day 12, after 3, 10, 30 mg/kg days 1-3 and 100 mg/kg days 4-11
  body weight: 6.2 kg
